Source: patent US11033598B2, “Pharmaceutical composition for preventing or treating hearing loss comprising oat extract as an active ingredient” (priority 2016, dated 2021)

Assays:
[1] = tested on: HEI-OC1 cell line; experiment: DCF-DA assay of ROS generation in gentamicin hearing loss model cells; settings: for ROS generation rate (DCF-DA): Table 2; for protection of hearing loss (DCF-DA test) as compared to gentamicin only: 0.1 μg/ml to 2 μg/ml, 24 hours before gentamicin 4 μM; for protection of hearing loss (DCF-DA test) as compared to gentamicin only / increase rate of the DCF fluorescence intensity: HEI-OC1; for increase rate of the DCF fluorescence intensity: 24 hrs
[2] = tested on: hearing loss mouse model (noise-induced hearing loss); experiment: Hearing threshold by auditory brainstem response (ABR) after exposure to noise; type: in vivo; settings: mice; for effect of preserving the hearing threshold (ABR, tone burst): 4 kHz, 8 kHz, 16 kHz TB
Description: In order to verify a hearing preservation effect of avenanthramide before exposure to noise, an experiment for measuring a hearing threshold was performed using an auditory brainstem response. A method of measuring the auditory brainstem response (ABR) is a method of evaluating a response to a sound by measuring electric energy when a sound stimulus is transmitted as an electrical signal in the auditory nerve. When the sound reaches the auditory nerve through the outer ear, the middle ear, and the cochlea, the response reflects all states of the outer ear, the middle ear, and the cochlea and reflects the actual sound energy to which the sound energy reaches the brain. The hearing threshold refers to a minimum sensory point of sound that is barely audible, and in a normal mouse, the response is observed even on the small sound having the average of 20 to 30 dB.
Mice to which avenanthramide was administered and untreated control mice were divided into four groups of eight mice, respectively, and evaluated. The noise was exposed with a pure tone of 90 dB of 8 KHz for 6 hours and 10 μg/kg of avenanthramide was intraperitoneally administered to mice before 6 hours and 24 hours of exposure to noise. During the auditory brainstem response test, the stimulus sound was evaluated by lowering the sound gradually from 90 dB by 5 dB with a click sound of a broadband stimulus sound, and the smallest sound of the response was set as the threshold. In addition, the hearing threshold was measured with a stimulus sound of 4 kHz, 8 kHz, 16 kHz, 24 kHz, and 32 kHz tone burst (TB), and in order to verify a hearing preservation effect of avenanthramide, the experiment for measuring the hearing threshold was performed in the same manner as above. The result was illustrated in FIG. 7.
(§1) The noise was exposed with a pure tone of 90 dB 8 KHz for 6 hours and 10 μg/kg of avenanthramide was intraperitoneally administered to mice before 6 hours and 24 hours of exposure to noise. Then, the ABR test was performed after two weeks of noise induction in the same manner as Experimental Example 1-1 and the result was illustrated in FIG. 8.
as §1, with “95” for “90”, “9.” for “8.”

Compound: O=C(/C=C/c1ccc(O)c(O)c1)Nc1ccc(O)cc1C(=O)O [AVN, avenanthramide-C]
- increase rate of DCF fluorescent intensity ([1]; AVN 0.5 μM 3 hr + GM 3 μM): 45.85
- increase rate of DCF fluorescent intensity ([1]; AVN 0.5 μM 12 hr + GM 3 μM): 45.12
- increase rate of DCF fluorescent intensity ([1]; AVN 0.5 μM 24 hr + GM 3 μM): 34.89
- ROS generation rate (DCF-DA) ([1]; AVN 1 μM alone): 4.43
- ROS generation rate (DCF-DA) ([1]; AVN 1 μM pretreated 24 hrs + GM 3 μM): 13.46
- increase rate of DCF fluorescent intensity ([1]; AVN only (0.5 μM), Table 3): 32.27
- increase rate of DCF fluorescent intensity ([1]; GM 4 μM + AVN 0.1 μM (24 hrs pretreatment)): 7.62
- increase rate of DCF fluorescent intensity ([1]; GM 4 μM + AVN 0.2 μM): 5.4
- increase rate of DCF fluorescent intensity ([1]; GM 4 μM + AVN 0.4 μM): 5.43
- increase rate of DCF fluorescent intensity ([1]; GM 4 μM + AVN 0.6 μM): 5.36
- increase rate of DCF fluorescent intensity ([1]; GM 4 μM + AVN 0.8 μM): 1.31
- increase rate of DCF fluorescent intensity ([1]; GM 4 μM + AVN 1.0 μM): 1.62
- increase rate of DCF fluorescent intensity ([1]; GM 4 μM + AVN 1.5 μM): 2.06
- increase rate of DCF fluorescent intensity ([1]; GM 4 μM + AVN 2.0 μM): 1.26
- increase rate of DCF fluorescent intensity ([1]; GM 4 μM + AVN 4.0 μM): 1.1
- increase rate of DCF fluorescent intensity ([1]; GM 4 μM + AVN 6.0 μM): 0.81
- ROS generated by gentamicin ([1]; as the avenanthramide treatment time increased (3, 12, 24 hr)): decreased
- effect on the damage by gentamicin ([1]; avenanthramide 0.1 μM, GM 4 μM): did not affect the damage by gentamicin
- decrease of the amount of ROS as compared to no avenanthramide ([1]; avenanthramide 0.2 μM, GM 4 μM): ≥ 50%
- amount of ROS generated by gentamicin ([1]; avenanthramide pretreated for 24 hours): decreased
- benefit in reducing the ROS generated by gentamicin ([1]; treatment of avenanthramide for 24 hours or more): no particular benefit
- effect of suppressing hearing loss caused by the ROS ([1]; treatment time of avenanthramide 24 hours or more): up to the same level as a control
- lowering of hearing threshold (ABR, click) versus exposure to noise without treatment ([2]; 10 μg/kg i.p. 6 and 24 hours before noise 90 dB 8 KHz 6 hours, ABR two weeks after noise, FIG. 8): ≥ 20 dB
- lowering of hearing threshold (ABR, click) versus exposure to noise without treatment ([2]; 10 μg/kg i.p. 6 and 24 hours before noise 95 dB 8 KHz 6 hours, ABR two weeks after noise, FIG. 9): ≥ 40 dB
- hearing threshold (ABR, click) versus control ([2]; 10 μg/kg i.p. before noise 95 dB 8 KHz 6 hours, ABR two weeks after noise, FIG. 9): almost the same threshold value as the control
- hearing threshold (ABR, click) versus exposure to noise without treatment ([2]; 10 μg/kg intraperitoneally 6 hours and 24 hours before noise (90 dB, 8 KHz, 6 hours), FIG. 7): lower threshold
- effect of preserving the hearing threshold (ABR, tone burst) ([2]; 10 μg/kg i.p. before noise 90 dB, FIG. 7): the effect of preserving the hearing threshold was high
- effect of preserving the hearing threshold (ABR, tone burst) ([2]; noise 90 dB, ABR two weeks after noise, FIG. 8): the effect of preserving the hearing threshold was high
- effect of preserving the hearing threshold (ABR, tone burst) ([2]; noise 95 dB, ABR two weeks after noise, FIG. 9): the effect of preserving the hearing threshold was high

Compound: O=C1O[C@H]([C@@H](O)CO)C(O)=C1O [ascorbic acid, reference compound]
- protection of hearing loss (DCF-DA test) as compared to gentamicin only [1]: not verified that when the ascorbic acid was administered, particular protection of hearing loss was shown

Compound: gentamicin [reference compound]
- ROS generation rate (DCF-DA) ([1]; GM 3 μM alone): 24.39
- increase rate of DCF fluorescent intensity ([1]; GM 3 μM alone, Table 3): 56.06
- increase rate of DCF fluorescent intensity ([1]; GM 4 μM only, Table 4): 11.51
- increase rate of the DCF fluorescence intensity ([1]; Gentamicin 2 μM): 7.64%
- increase rate of the DCF fluorescence intensity ([1]; Gentamicin 3 μM): 12.59%
- increase rate of the DCF fluorescence intensity ([1]; Gentamicin 4 μM): 20.35%
- generation amount of the ROS ([1]; as the treatment amount of gentamicin was increased (0-4 μM)): increased
- cell death ([1]; gentamicin of 10 μM or more): the cells were almost died

Compound: β-glucan [reference compound]
- protection of hearing loss (DCF-DA test) as compared to gentamicin only [1]: not verified that when the β-glucan was administered, particular protection of hearing loss was shown
